According to patent US20250257064A1, “TRIFLUOROMETHYL-SUBSTITUTED SULFONAMIDE AS BCL-2-SELECTIVE INHIBITOR” (Chia Tai Tianqing Pharmaceutical Group Co., Ltd., priority 2018, published 2025):

What was measured:
[1] = tested on: human platelet Caspase-3 activity; experiment: Human platelet toxicity experiment (Caspase-3 activity assay); format: cell-based; conditions: 90 min, data normalized, reference ABT-199
Procedure: Experimental Example 6: Human Platelet Toxicity Experiment (Caspase-3 Activity Assay)
10 mL of human whole blood was collected using a heparin sodium anticoagulation tube, mixed well by turning upside down, and centrifuged at 90 g for 10 min. The supernatant was collected and centrifuged at 1950 g for 10 min. The supernatant was discarded, and the residue was resuspended in 4 mL of PBS, and centrifuged at 1190 g for 5 min, and the procedure was repeated once. The supernatant was discarded, and the platelets were resuspended in PBS and adjusted to the density of 2-3×10^8 cells/mL. Cells were seeded into a 96-well plate at a density of 2-3×10^7 cells/mL and at 100 μL/well. 50 μL of control buffer was added to each negative control well, and 50 μL of compound at a corresponding concentration was added to each compound well, so that the final concentration of the compound was 2.5 μM, 2 μM, 1 μM or 0.5 μM, followed by incubation in an incubator at 37° C. for 90 min. The liquids in the 96-well plate were transferred to 1.5 mL centrifuge tubes, respectively. The tubes were centrifuged at 4° C. and 6000 g for 5 min, and placed on ice for later use after the supernatant was discarded. 5× lysis buffer was diluted into 1× lysis buffer with water in the kit, and protease inhibitor cocktail was added at a 1:200 ratio to prepare a lysis mixture for later use. 40 μL of lysis mixture was added to each centrifuge tube, and the platelets at the bottom were resuspended using a pipette. The suspension was lysed on ice for 15-20 min and centrifuged at 4° C. and 14,000 g for 10 min. The sample was sub-packaged for later use. 10× assay buffer was diluted into 1× assay buffer with water in the kit, and substrate Ac-DEVD-AMC was added at a 1:600 ratio to prepare a reaction mixture. 5 μL of assay buffer and 40 μL of reaction mixture were added to each blank control well. 5 μL of control platelet lysate and 40 μL of reaction mixture were added to each negative control well. 5 μL of platelet lysate and 40 μL of reaction mixture were added to each compound well. In this procedure, 40 μL of reaction mixture was added at last. The resulting mixture was mixed gently, and the plate was read by a PE Envision multi-functional microplate reader (excitation: 360 nm, emission: 460 nm) once every 10 min for 6 times. Caspase-3 activity was determined based on the intensity of the released AMC fluorescence, that is the slope of the fitted line to which each well corresponds represents Caspase activity (all data were normalized and the reference was ABT-199).

BCL-2/BAK = target: T1, BCL-2/BAK (Homo sapiens, UniProt P10415); experiment: Screening on inhibitory activity for BCL-2/BAK binding (Cisbio HTRF kit)
T1 construct: purchased Cisbio
T1 sequence (P10415 whole entry, species assumed): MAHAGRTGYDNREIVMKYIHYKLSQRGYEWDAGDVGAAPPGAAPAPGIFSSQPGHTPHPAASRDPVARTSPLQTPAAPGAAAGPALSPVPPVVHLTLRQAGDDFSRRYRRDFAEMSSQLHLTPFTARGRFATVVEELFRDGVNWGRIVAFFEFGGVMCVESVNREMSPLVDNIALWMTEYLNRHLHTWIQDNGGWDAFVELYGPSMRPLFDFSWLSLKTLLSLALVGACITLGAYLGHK
Procedure, shortened: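 HTRF competition assay: Tag1-BCL-2 and Tag2-BAK working dilutions were 5 nM and 120 nM. Compound (200–0.0488 nM final, 4-fold, 7 points, duplicates) was incubated with the proteins for 15 min at 25 °C, then with Eu-cryptate/XL665 antibodies for ≥2 h at 25 °C. IC50 was derived from a four-parameter fit.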

[2] = In vitro stability in rat liver microsomes; format: in vitro ADME; conditions: 1 μM
Procedure: (§1) Experimental Example 3: In Vitro Stability in Liver Microsome
(§2) 300 μL of the final incubation system contains 30 μL of liver microsomes (protein concentration: 5 mg/mL), 30 μL of NADPH+MgCl2, 3 μL of the test compound (in acetonitrile), and 237 μL of PBS buffer (pH 7.4), wherein the proportion of the organic solvent (acetonitrile) is 1% (volume ratio). Two duplicate samples were prepared for each specie (mouse, rat and human), and each sample was 0.3 mL. Each tube which was added with 270 μL of a mixed solution of substrate and enzyme, and NADPH, after being pre-incubated at 37° C. for 5 min, was added with 30 μL of NADPH+MgCl2 and mixed. Then 50 μL of the mixture was taken at 0 min, 15 min, 30 min and 60 min, and added with 300 μL of glacial acetonitrile containing an internal standard to terminate the reaction.
(§3) 50 μL of the incubated sample was added with 300 μL of glacial acetonitrile containing an internal standard (20 ng/mL diazepam) for precipitation, vortexed for 5 min, and centrifuged (13,000 rpm, 20° C.) for 10 min. 70 μL of supernatant was taken and diluted with 70 μL of ultrapure water. After being mixed well, 1 μL of the resulting sample was injected for analysis.

[3] = In vitro stability in mouse liver microsomes; format: in vitro ADME; conditions: 1 μM
Procedure: as §1, §2, §3

BCL-XL/BAK = target: T2, BCL-XL/BAK (Homo sapiens, UniProt Q07817); experiment: Screening on inhibitory activity for BCL-XL/BAK binding (Cisbio HTRF kit)
T2 construct: purchased Cisbio
T2 sequence (Q07817 whole entry, species assumed): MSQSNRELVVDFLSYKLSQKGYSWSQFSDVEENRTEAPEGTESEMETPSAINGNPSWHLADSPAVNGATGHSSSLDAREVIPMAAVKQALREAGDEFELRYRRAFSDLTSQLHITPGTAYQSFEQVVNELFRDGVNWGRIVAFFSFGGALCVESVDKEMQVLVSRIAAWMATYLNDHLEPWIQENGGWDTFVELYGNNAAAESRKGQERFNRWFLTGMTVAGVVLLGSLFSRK
Procedure, shortened: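 Tag1-BCL-XL and Tag2-BAK (2 nM and 80 nM before mixing) were combined with compounds at final 2000–0.488 nM (4-fold, 7 points, duplicates) for 15 min at 25° C. Eu3+ anti-Tag1 and XL665 anti-Tag2 were then added for ≥2 h at 25° C. HTRF (620/665 nm) gave IC50 by four-parameter fit.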

[4] = In vitro stability in human liver microsomes; format: in vitro ADME; conditions: 1 μM
Procedure: as §1, §2, §3

RS4;11 cells = experiment: Inhibitory effect on proliferation of RS4;11 cells (CCK-8); format: cell-based, human; conditions: Homo sapiens, RS4-11, 72 h
Procedure, shortened: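 RS4;11 cells were seeded at 1×10^5 cells/mL in RPMI with 5% FBS and incubated 24 h at 37° C, 5% CO2 before compound addition in duplicate. Inhibition was calculated against untreated and blank controls. IC50 came from a four-parameter fit of log concentration versus inhibition.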

IC50 (BCL-2/BAK)	Rat Residual content after 60 min (%) [2]	Mouse Residual content after 60 min (%) [3]	IC50 (BCL-XL/BAK)	Human Residual content after 60 min (%) [4]	IC50 (RS4;11 cells)	Structure (SMILES)	human platelet Caspase-3 activity, Slope ([1]; compound concentration 0.5 μM)	human platelet Caspase-3 activity, Slope ([1]; compound concentration 2 μM)	human platelet Caspase-3 activity, Slope ([1]; compound concentration 1 μM)
1.6 nM	66.3%	62.9%	140 nM	67.4%	2.5 nM	COCC(=O)N1CCO[C@H](CNc2ccc(S(=O)(=O)NC(=O)c3ccc(N4CCN(CC5=C(c6ccc(C(F)(F)F)cc6Cl)CC(C)(C)CC5)CC4)cc3Oc3cnc4[nH]ccc4c3)cc2[N+](=O)[O-])C1 [Compound 11-1]	0.42	0.57	
2.8 nM	69.9%	30.1%	194 nM	78.0%	5.6 nM	CC(C)C(=O)N1CCOC(CNc2ccc(S(=O)(=O)NC(=O)c3ccc(N4CCN(CC5=C(c6ccc(C(F)(F)F)cc6Cl)CC(C)(C)CC5)CC4)cc3Oc3cnc4[nH]ccc4c3)cc2[N+](=O)[O-])C1 (centres unmarked) [Compound 10-1, 4-(4-{[2-(2-chloro-4-trifluoromethylphenyl)-4,4-dimethylcyclohex-1-enyl]methyl}-piperazin-1-yl)-N-({3-nitro-4-[((4-isobutyrylmorpholin-2-yl)methyl)amino]phenyl}sulfonyl)-2-(1H-pyrrolo[2,3-b]pyridin-5-yloxy)-benzamide]			
1.4 nM	80.2%	93.4%	113 nM	91.3%	1.7 nM	CC1(C)CCC(CN2CCN(c3ccc(C(=O)NS(=O)(=O)c4ccc(NCC5CN(S(C)(=O)=O)CCO5)c([N+](=O)[O-])c4)c(Oc4cnc5[nH]ccc5c4)c3)CC2)=C(c2ccc(C(F)(F)F)cc2Cl)C1 (centres unmarked) [Compound 12-1, 4-(4-{[2-(2-chloro-4-trifluoromethylphenyl)-4,4-dimethylcyclohex-1-enyl]methyl}-piperazin-1-yl)-N-({3-nitro-4-[((4-methylsulfonylmorpholin-2-yl)methyl)amino]phenyl}sulfonyl)-2-(1H-pyrrolo[2,3-b]pyridin-5-yloxy)-benzamide]	0.27	0.33	
5.7 nM	61.2%	65.3%	1970 nM	65.9%	2.4 nM	CC1(C)CCC(CN2CCN(c3ccc(C(=O)NS(=O)(=O)c4ccc(NCC5CCOCC5)c([N+](=O)[O-])c4)c(Oc4cnc5[nH]ccc5c4)c3)CC2)=C(c2ccc(C(F)(F)F)c(F)c2)C1 [Compound 6-1, 4-(4-{[2-(3-fluoro-4-trifluoromethylphenyl)-4,4-dimethylcyclohex-1-enyl]methyl}-piperazin-1-yl)-N-({3-nitro-4-[(tetrahydro-2H-pyran-4-ylmethyl)amino]phenyl}sulfonyl)-2-(1H-pyrrolo[2,3-b]pyridin-5-yloxy)-benzamide]			0.45
